# Results from PMC5445473, “Identification of Enterococcus faecalis enzymes with azoreductases and/or nitroreductase activity” (BMC Microbiology, 2017).
# Experiments:
# Assay in all cases: LC-ESI-MS of natively purified enzyme; activity of apo-enzyme restored by FMN
# Format in all cases: binding
# Settings in all cases: native purification; apo-enzyme assay with 5 uM FMN, pH 7, 35 °C
# EF0648 = target: T1, EF0648 (Enterococcus faecalis, UniProt Q838C2)
# T1 construct: gene EF_0648; E. coli XL1Blue; about 25 kDa
# T1 sequence (Q838C2 2-205): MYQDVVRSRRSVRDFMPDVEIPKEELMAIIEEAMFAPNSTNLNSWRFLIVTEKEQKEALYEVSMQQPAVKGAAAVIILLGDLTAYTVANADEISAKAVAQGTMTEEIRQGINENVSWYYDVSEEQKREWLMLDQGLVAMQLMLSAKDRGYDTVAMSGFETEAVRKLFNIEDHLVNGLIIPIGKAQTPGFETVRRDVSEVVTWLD
# EF1181 = target: T2, EF1181 (Enterococcus faecalis, UniProt Q836D4)
# T2 construct: gene EF_1181; E. coli XL1Blue; about 30 kDa; forward primer starts after the initiator Met
# T2 sequence (Q836D4 2-244): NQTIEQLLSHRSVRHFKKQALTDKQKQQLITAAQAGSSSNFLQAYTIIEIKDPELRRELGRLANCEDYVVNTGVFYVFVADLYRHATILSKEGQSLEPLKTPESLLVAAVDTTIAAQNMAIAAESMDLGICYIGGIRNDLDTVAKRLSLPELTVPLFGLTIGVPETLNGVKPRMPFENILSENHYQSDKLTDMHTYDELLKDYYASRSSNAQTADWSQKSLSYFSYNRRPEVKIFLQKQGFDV
# EF0655 = target: T3, EF0655 (Enterococcus faecalis, UniProt Q838B7)
# T3 construct: gene EF_0655; E. coli XL1Blue; about 22 kDa; forward primer starts after the initiator Met
# T3 sequence (Q838B7 2-198): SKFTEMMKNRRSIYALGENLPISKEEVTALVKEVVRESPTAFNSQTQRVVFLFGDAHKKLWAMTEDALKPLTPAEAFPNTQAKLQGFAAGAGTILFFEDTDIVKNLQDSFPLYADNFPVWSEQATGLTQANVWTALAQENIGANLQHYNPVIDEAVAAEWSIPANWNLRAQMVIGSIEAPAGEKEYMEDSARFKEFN
# EF0404 = target: T4, EF0404 (Enterococcus faecalis, UniProt Q838N5)
# T4 construct: gene EF_0404; E. coli XL1Blue; about 25 kDa; forward primer starts after the initiator Met
# T4 sequence (Q838N5 2-211): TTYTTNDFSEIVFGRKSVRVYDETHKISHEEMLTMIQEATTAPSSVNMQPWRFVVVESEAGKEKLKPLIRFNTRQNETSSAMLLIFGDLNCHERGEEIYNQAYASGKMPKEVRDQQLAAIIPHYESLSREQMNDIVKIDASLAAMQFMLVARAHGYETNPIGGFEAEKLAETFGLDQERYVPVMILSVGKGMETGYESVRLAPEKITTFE
# AzoA = target: T5, AzoA (Enterococcus faecalis, UniProt Q831B2)
# T5 construct: gene azoR; E. coli XL1Blue; about 25 kDa; forward primer starts after the initiator Met
# T5 sequence (Q831B2 2-208): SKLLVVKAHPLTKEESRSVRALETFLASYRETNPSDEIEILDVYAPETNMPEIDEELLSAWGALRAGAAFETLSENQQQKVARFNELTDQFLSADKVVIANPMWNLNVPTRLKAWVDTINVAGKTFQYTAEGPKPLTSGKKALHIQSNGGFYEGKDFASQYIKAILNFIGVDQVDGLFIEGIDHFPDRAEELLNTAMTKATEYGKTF
smiles,measurement,setting,value
Cc1cc2nc3c(=O)[nH]c(=O)nc-3n(C[C@H](O)[C@H](O)[C@H](O)COP(=O)(O)O)c2cc1C [FMN],LC-ESI-MS of natively purified enzyme; activity of apo-enzyme restored by FMN,EF0648,confirmed FMN presence for the enzymes purified using native conditions
same,LC-ESI-MS of natively purified enzyme; activity of apo-enzyme restored by FMN,EF1181,confirmed FMN presence for the enzymes purified using native conditions
same,LC-ESI-MS of natively purified enzyme; activity of apo-enzyme restored by FMN,EF0655,confirmed FMN presence for the enzymes purified using native conditions
same,LC-ESI-MS of natively purified enzyme; activity of apo-enzyme restored by FMN,EF0404,confirmed FMN presence for the enzymes purified using native conditions
same,LC-ESI-MS of natively purified enzyme; activity of apo-enzyme restored by FMN,AzoA,confirmed FMN presence for the enzymes purified using native conditions
